Results on 22 molecules are retold here after US7189720B2 (H. Lundbeck A/S, priority 1999, dated 2007).

The term melting point denotes the temperature of the solid-liquid transition. The term Ki denotes the dissociation constant of the complex between target and ligand, obtained from inhibition or displacement.

Where a name gives a salt, the structure may show the parent alone. Read-outs that look alike come from different tables or passages of the source. Where only a bound is given, the exact number is not on record here.

The target of one data set is T1, human Y4 receptor (Homo sapiens, UniProt P50391).
T1 construct: expressed in transfected cells; host or cells: mouse fibroblast LM(tk-) cells, e.g. L-hY4-3 (ATCC CRL-11779)
T1 sequence (P50391 whole entry): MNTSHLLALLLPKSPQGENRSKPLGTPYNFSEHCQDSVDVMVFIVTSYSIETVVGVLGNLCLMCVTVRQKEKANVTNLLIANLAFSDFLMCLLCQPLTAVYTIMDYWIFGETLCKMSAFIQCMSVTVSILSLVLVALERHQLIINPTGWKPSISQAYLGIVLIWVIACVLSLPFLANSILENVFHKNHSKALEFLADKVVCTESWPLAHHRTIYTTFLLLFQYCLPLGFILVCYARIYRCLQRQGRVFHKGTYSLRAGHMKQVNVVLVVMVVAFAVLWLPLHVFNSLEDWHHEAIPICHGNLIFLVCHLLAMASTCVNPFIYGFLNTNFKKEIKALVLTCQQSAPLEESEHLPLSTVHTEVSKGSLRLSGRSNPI
The experiment in a line: Radioligand binding to membranes, cloned human Y4 receptor. The note with it: hNPY-4 (one cell for Y1, Y2, Y4), read-out: Ki, nM hNPY-1,2,4.

Another data set deals with T2, human Y5 receptor (Homo sapiens, UniProt Q15761).
T2 construct: expressed in transfected cells; host or cells: mouse fibroblast LM(tk-) cells, e.g. L-hY5-7 (ATCC CRL-11995)
T2 sequence (Q15761 1-445): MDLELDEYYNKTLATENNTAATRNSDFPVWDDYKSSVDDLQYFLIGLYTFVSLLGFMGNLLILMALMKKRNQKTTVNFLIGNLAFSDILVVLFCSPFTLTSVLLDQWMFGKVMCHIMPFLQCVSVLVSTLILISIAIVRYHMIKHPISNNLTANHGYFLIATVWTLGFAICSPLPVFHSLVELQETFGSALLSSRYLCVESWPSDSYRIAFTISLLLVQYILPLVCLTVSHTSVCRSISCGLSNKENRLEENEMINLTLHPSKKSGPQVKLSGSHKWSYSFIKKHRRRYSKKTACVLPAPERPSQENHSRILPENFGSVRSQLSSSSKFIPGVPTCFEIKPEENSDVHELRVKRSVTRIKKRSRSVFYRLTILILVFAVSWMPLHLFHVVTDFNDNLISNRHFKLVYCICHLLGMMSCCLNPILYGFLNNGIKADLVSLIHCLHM
The experiment in a line: Radioligand binding to membranes, cloned human Y5 receptor. The note with it: read-out: Ki, nM hNPY-5.

The target in the next data set is T3, human Y1 receptor (Homo sapiens, UniProt P25929).
T3 construct: expressed in transfected cells; host or cells: human embryonic kidney 293 cells, e.g. 293-hY1-5 (ATCC CRL-12121)
T3 sequence (P25929 1-384): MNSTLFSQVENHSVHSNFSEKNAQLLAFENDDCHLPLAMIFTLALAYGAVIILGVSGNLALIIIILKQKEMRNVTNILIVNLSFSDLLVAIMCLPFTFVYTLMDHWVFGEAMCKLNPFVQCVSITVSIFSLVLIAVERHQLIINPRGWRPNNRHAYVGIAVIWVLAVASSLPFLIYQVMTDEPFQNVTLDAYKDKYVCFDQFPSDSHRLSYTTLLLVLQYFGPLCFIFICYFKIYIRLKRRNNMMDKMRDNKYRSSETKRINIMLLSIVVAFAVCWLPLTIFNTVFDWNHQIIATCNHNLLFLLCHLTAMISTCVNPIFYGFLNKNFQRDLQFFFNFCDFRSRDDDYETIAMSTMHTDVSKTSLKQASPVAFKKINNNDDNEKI
The experiment in a line: Radioligand binding to membranes, cloned human Y1 receptor. Conditions: hNPY-1 (one cell for Y1, Y2, Y4), read-out: Ki, nM hNPY-1,2,4.

The target of the next data set is T4, human Y2 receptor (Homo sapiens, UniProt P49146).
T4 sequence (P49146 1-381): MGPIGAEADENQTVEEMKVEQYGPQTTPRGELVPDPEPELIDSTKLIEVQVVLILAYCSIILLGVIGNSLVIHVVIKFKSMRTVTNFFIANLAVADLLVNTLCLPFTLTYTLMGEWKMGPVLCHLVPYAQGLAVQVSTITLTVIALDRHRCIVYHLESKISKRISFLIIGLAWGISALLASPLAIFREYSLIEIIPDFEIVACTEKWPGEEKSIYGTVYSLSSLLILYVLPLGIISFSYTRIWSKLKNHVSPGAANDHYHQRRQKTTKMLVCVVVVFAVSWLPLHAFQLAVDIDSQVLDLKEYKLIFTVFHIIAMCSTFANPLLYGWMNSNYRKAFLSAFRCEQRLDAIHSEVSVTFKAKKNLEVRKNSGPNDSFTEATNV
The experiment in a line: Radioligand binding to membranes, cloned human Y2 receptor.

Method for human Y1 receptor: (§1) Binding of the compounds of the present invention to human Y1, Y2, Y4, and Y5 receptors was evaluated using stably transfected 293 or LM(tk-) cells as described above.
(§2) Membranes were harvested from COS-7 cells 48 hours after transient transfection. Adherent cells were washed twice in ice-cold phosphate buffered saline (138 mM NaCl, 8.1 mM Na2HPO4, 2.5 mM KCl, 1.2 mM KH2PO4, 0.9 mM CaCl2, 0.5 mM MgCl2, pH 7.4) and lysed by sonication in ice-cold sonication buffer (20 mM Tris-HCl, 5 mM EDTA, pH 7.7). Large particles and debris were cleared by low speed centrifugation (200×g, 5 min, 4° C.). Membranes were collected from the supernatant fraction by centrifugation (32,000×g, 18 min, 4° C.), washed with ice-cold hypotonic buffer, and collected again by centrifugation (32,000×g, 18 min, 4° C.). The final membrane pellet was resuspended by sonication into a small volume of ice-cold binding buffer (˜1 ml for every 5 plates: 10 mM NaCl, 20 mM HEPES, 0.22 mM KH2PO4, 1.26 mM CaCl2, 0.81 mM MgSO4, pH 7.4). Protein concentration was measured by the Bradford method (Bradford, 1976) using Bio-Rad Reagent, with bovine serum albumin as a standard. Membranes were held on ice for up to one hour and used fresh, or flash-frozen and stored in liquid nitrogen.
(§3) Membranes were prepared similarly from 293, LM(tk-), and NIH-3T3 cells.
(§4) Membrane suspensions were diluted in binding buffer supplemented with 0.1% bovine serum albumin to yield an optimal membrane protein concentration so that ^125I-PYY (or alternative radioligand such as ^125I-NPY, ^125I-NYY3-36, or ^125I-[Leu^31Pro^34]PYY) bound by membranes in the assay was less than 10% of ^125I-PYY (or alternative radioligand) delivered to the sample (100,000 dpm/sample=0.08 nM for competition binding assays). ^125I-PYY (or alternative radioligand) and peptide competitors were also diluted to desired concentrations in supplemented binding buffer. Individual samples were then prepared in 96-well polypropylene microtiter plates by mixing ^125I-PYY (25 μL) (or alternative radioligand), competing peptides or supplemented binding buffer (25 μL), and finally, membrane suspensions (200 μL). Samples were incubated in a 30° C. water bath with constant shaking for 120 min. Incubations were terminated by filtration over Whatman GF/C filters (pre-coated with 1% polyethyleneimine and air-dried before use), followed by washing with 5 mL of ice-cold binding buffer. Filter-trapped membranes were impregnated with MeltiLex solid scintillant (Wallac, Turku, Finland) and counted for ^125I in a Wallac Beta-Plate Reader. Alternatively, incubations were carried out in GF/C filter plates (pre-coated with 1% polyethyleneimine and air-dried before use), followed by vacuum filtration and three washes of 300 μL of ice-cold binding buffer. 50 μL of UltimaGold (Packard) scintillant were added and counted for ^125I, in a Wallac MicroBeta Trilux. Non-specific binding was defined by 300 nM human NPY for all receptors except the Y4 subtypes; 100 nM human PP was used for the human Y4 and 100 nM rat PP for the rat Y4.
Method for human Y2 receptor: as §1, §2, §3, §4
Method for human Y4 receptor: as §1, §2, §3, §4

Regarding `O=S(=O)(NCCCCCNc1nc(-c2ccccn2)cs1)c1ccccc1F` (as salt: chloride) [Example 61, 2-(5-(2-Fluorophenyl)sulfonylamino)pentylamino-4-(2-pyridyl)-thiazole hydrogen chloride], the melting point fell in the range of 60 to 63 °C.

For `O=S(=O)(NCCCCCNc1nc(-c2ccccn2)cs1)C(F)(F)F` (as salt: chloride) [Example 68, 2-(5-(Trifluoromethylsulfonylamino)pentyl)amino-4-(2-pyridyl)thiazole hydrogen chloride], the melting point is 63 to 65 °C. Same read-out and setting: the result for `O=S(=O)(NCCCCCNc1nc(-c2ccncc2)cs1)c1ccccc1F` (as salt: chloride) [Example 73, 2-(5-(2-Fluoro)phenylsulfonylamino)pentylamino-4-(4-pyridyl)thiazole hydrogen chloride] reads 97 to 98 °C; that for `Cc1noc(C)c1S(=O)(=O)NCCCCCNc1nc(-c2cccnc2)cs1` (as salt: chloride) [Example 71, 2-(5-(3,5-Dimethylisoxazol-4-yl)sulfonylamino)pentylamino-4-(3-pyridyl)thiazole hydrogen chloride], 114 to 115 °C; that for `Cc1noc(C)c1S(=O)(=O)NCCCCCNc1nc(-c2ccncc2)cs1` (as salt: chloride) [Example 74, 2-(5-(3,5-Dimethylisoxazol-4-yl)sulfonylamino)pentylamino-4-(4-pyridyl)thiazole hydrogen chloride], 108 to 109 °C. `O=S(=O)(NCCCCCNc1nc(-c2ccccn2)cs1)c1cccs1` (as salt: chloride) [Example 60, 4-(2-Pyridyl)-2-(5-(2-thienyl)sulfonylaminopentyl)-amino-thiazole hydrogen chloride] gave a melting point of 75 to 77 °C. For `NS(=O)(=O)NCCCCCNc1nc(-c2ccccn2)cs1` (as salt: chloride) [Example 69, 2-(5-(Aminosulfonylamino)pentyl)amino-4-(2-pyridyl)thiazole hydrogen chloride], the melting point was 68 to 70 °C. The same measure, in the same setting: the result for `Cc1noc(C)c1S(=O)(=O)N[C@H]1CC[C@H](CNc2nc(-c3ccccn3)cs2)CC1` (as salt: chloride) [Example 85, trans-2-(4-(3,5-Dimethyl-4-isoxazolyl)sulfonylamino)-cyclohexylmethylamino-4-(2-pyridyl)thiazole dihydrogen chloride] reads 98 to 101 °C; that for `O=S(=O)(Cc1ccccc1)NCCCCCNc1nc(-c2ccccn2)cs1` (as salt: chloride) [Example 66, 2-(5-(Benzylsulfonylamino)pentylamino-4-(2-pyridyl)thiazole hydrogen chloride], 62 to 64 °C. The same measure, in the same setting: the result for `O=S(=O)(NCCCCCNc1nc(-c2cccnc2)cs1)c1ccccc1F` (as salt: chloride) [Example 70, 2-(5-(2-Fluorophenyl)sulfonylamino)pentylamino-4-(3-pyridyl)thiazole hydrogen chloride] reads 84 to 85 °C; that for `O=S(=O)(NCCCCCNc1nc(-c2ccccn2)cs1)c1ccc(F)c(F)c1` (as salt: chloride) [Example 64, 2-(5-(3,4-Difluorophenyl)sulfonylamino)pentylamino-4-(2-pyridyl)thiazole hydrogen chloride], 65 to 68 °C; that for `COc1ccc(S(=O)(=O)NCCCCCNc2nc(-c3ccccn3)cs2)cc1` (as salt: chloride) [Example 62, 2-(5-(4-Methoxyphenyl)sulfonylamino)pentylamino-4-(2-pyridyl)thiazole hydrogen chloride], 54 to 57 °C. Still for that read-out and setting: the result for `COc1ccc(C)cc1S(=O)(=O)NCCCCCNc1nc(-c2ccncc2)cs1` (as salt: chloride) [Example 75, 2-(5-(2-Methoxy-5-methyl)phenylsulfonylamino)pentylamino-4-(4-pyridyl)thiazole hydrogen chloride] reads 116 to 117 °C; that for `CCS(=O)(=O)NCCCCCNc1nc(-c2ccccn2)cs1` (as salt: chloride) [Example 67, 2-(5-(Ethylsulfonylamino)pentyl)amino-4-(2-pyridyl)thiazole hydrogen chloride], 49 to 51 °C; that for `O=S(=O)(N[C@H]1CC[C@H](CNc2nc(-c3cccnc3)cs2)CC1)c1ccccc1F` (as salt: chloride) [Example 86, trans-2-(4-(2-Fluorophenyl)sulfonylamino)cyclohexylmethyl-amino-4-(3-pyridyl)thiazole dihydrogen chloride], 141 to 142 °C. Take `CS(=O)(=O)NCCCCCNc1nc2c(s1)CCSc1ccc(F)cc1-2` [Example 159, N-{5-[(9-Fluoro-4,5-dihydrobenzo[2,3]thiepino[4,5-d][1,3]thiazol-2-yl)amino]pentyl}methanesulfonamide]: the Ki on human Y4 receptor (Table 6) is above 10000 nM; on human Y5 receptor (Table 6), 6.1 nM; at human Y1 receptor (Table 6), above 10000 nM; at human Y2 receptor it was above 10 µM. As for `Cc1noc(C)c1S(=O)(=O)NCCCCCNc1nc(-c2cccnc2)cs1` [Example 71, 2-(5-(3,5-Dimethylisoxazol-4-yl)sulfonylamino)pentylamino-4-(3-pyridyl)thiazole hydrogen chloride], the Ki on human Y4 receptor (Table 5) is above 10000 nM; at human Y5 receptor (Table 5), 37 nM; on human Y1 receptor (Table 5), above 10000 nM; on human Y2 receptor, above 10 µM.

`COc1ccc(C)cc1S(=O)(=O)NCCCCCNc1nc(-c2ccn(S(=O)(=O)c3ccccc3)c2)cs1` [Example 80, N1-[5-({4-[1-(Phenylsulfonyl)-1H-3-pyrrolyl]-1,3-thiazol-2-yl}amino)pentyl]-2-methoxy-5-methyl-1-benzenesulfonamide]: the Ki at human Y4 receptor (Table 5) was above 10000 nM; on human Y5 receptor (Table 5), 40 nM; on human Y1 receptor (Table 5), above 10000 nM; at human Y2 receptor it was above 10 µM. In the case of `COc1ccc(C)cc1S(=O)(=O)NCCCCCNc1nc(-c2ccccn2)cs1` (as salt: chloride) [Example 65, 2-(5-(2-Methoxy-5-methylphenyl)sulfonylamino)pentylamino-4-(2-pyridyl)thiazole hydrogen chloride], the melting point was 155 to 156 °C. Take `COc1ccc(C)cc1S(=O)(=O)NCCCCCNc1nc2c(s1)CCSc1ccc(F)cc1-2` [Example 160, N1-{5-[(9-Fluoro-4,5-dihydrobenzo[2,3]thiepino[4,5-d][1,3]thiazol-2-yl)amino]pentyl}-2-methoxy-5-methyl-1-benzenesulfonamide]: the Ki was above 10000 nM on human Y4 receptor (Table 6), 2.8 nM on human Y5 receptor (Table 6), above 10000 nM on human Y1 receptor (Table 6) and above 10 µM on human Y2 receptor.

With `COc1ccc(C)cc1S(=O)(=O)NCCCCCNc1nc(-c2cc(-c3ccccc3)on2)cs1` [Example 78], the inhibition constant (Ki) on human Y4 receptor (Table 5) is above 10000 nM; at human Y5 receptor (Table 5), 891 nM; on human Y1 receptor (Table 5), above 10000 nM; at human Y2 receptor, above 10 µM.

`Cc1cccc(F)c1S(=O)(=O)NC[C@H]1CC[C@H](Nc2nc3c(s2)CCSc2ccccc2-3)CC1` [Example 158, N1-{[4-(4,5-Dihydrobenzo[2,3]thiepino[4,5-d][1,3]thiazol-2-ylamino)cyclohexyl]methyl}-2-fluoro-6-methyl-1-benzenesulfonamide]: the inhibition constant (Ki) at human Y4 receptor (Table 6) is above 10000 nM; at human Y5 receptor (Table 6) it was 8.2 nM; at human Y1 receptor (Table 6), above 10000 nM; on human Y2 receptor, above 10 µM.
